Measured values: US8759342B2, “Benzo[1,4]oxazin-3-one, benzo[1,4]thiazin-3-one and quinolin-2-one urotensin II receptor antagonists” (Janssen Pharmaceutica NV, priority 2006, dated 2014)
Read-outs that look alike come from different tables or passages of the source.

How the values were obtained:
[1] = molecular target: T1, rat GPR14 (U-II receptor) (Rattus norvegicus, UniProt P49684); assay: Calcium flux assay (FLIPR); type: cell-based; conditions: Inhibition of acetyl-cyclic[Cys-Phe-Trp-Lys-(2-Nal)-Cys]-NH2 (1 nM) induced Ca2+ mobilization (FLIPR) in CHO cells transfected with rat UII receptor; 5 min incubation
T1 construct: expressed in transfected cells
T1 sequence (P49684 1-386): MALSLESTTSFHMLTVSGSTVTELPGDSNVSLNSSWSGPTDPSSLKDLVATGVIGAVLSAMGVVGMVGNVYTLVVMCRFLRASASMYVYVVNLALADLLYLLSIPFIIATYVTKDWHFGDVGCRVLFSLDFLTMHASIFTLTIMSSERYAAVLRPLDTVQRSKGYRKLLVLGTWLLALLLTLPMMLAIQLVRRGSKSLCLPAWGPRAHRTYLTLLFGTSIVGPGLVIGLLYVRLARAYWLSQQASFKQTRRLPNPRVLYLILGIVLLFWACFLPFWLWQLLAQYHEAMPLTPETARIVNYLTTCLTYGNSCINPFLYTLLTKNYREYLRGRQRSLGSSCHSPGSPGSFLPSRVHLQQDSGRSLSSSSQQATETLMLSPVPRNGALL
Summary of the method: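 Stable CHO cell line expressing cloned rat U-II receptor, seeded 24 h before assay, loaded with FLIPR calcium dye in HBSS/20 mM HEPES/0.1% BSA/2.5 mM probenecid, pH 7.4, for 1 hr at 37° C. Calcium mobilization read at room temperature (23° C.).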

Human UII receptors = molecular target: T2, Human UII receptors (Homo sapiens, UniProt Q9UKP6); assay: Human radioligand binding assay, (125I)-U-II on HSMM; conditions: 0.150 nM (125I)-U-II, intact Human Skeletal Muscle Myoblasts, 3 hrs, 25° C.; read-out: Ki
T2 construct: host or cells: Human Skeletal Muscle Myoblasts (HSMM), intact adherent cells
T2 sequence (Q9UKP6 1-389): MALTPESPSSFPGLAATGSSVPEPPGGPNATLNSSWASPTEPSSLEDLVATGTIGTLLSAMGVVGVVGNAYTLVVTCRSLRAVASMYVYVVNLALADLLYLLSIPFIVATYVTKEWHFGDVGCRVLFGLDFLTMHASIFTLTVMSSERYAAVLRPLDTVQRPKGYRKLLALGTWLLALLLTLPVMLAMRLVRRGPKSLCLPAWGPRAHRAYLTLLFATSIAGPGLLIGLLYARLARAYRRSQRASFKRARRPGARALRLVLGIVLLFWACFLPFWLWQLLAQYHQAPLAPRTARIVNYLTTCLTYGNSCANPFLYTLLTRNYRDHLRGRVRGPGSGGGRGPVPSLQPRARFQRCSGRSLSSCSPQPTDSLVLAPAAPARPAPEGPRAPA
Experimental: Human Skeletal Muscle Myoblasts (HSMM) were obtained from Cambrex, and were cultured according to manufacturer's instruction. Cell viability was examined by trypan blue exclusion. Cells at less than 4 passages were used in all studies. […] The binding medium used was Dulbecco's modified Eagle's medium (DMEM) containing 2 mg/ml BSA and 25 mM HEPES (pH 7.4). […] The cells were washed 4× with the binding medium and solubilized in 1% SDS and 0.5 N NaOH. Radioactivity was quantified by gamma counting.

[2] = test system: streptozotocin-induced diabetic rats; conditions: long-term treatment; cited from earlier work
isolated arterial rings [3] = conditions: humans; read-out: EC50, contraction of isolated arterial rings; cited from earlier work
isolated arterial rings [4] = conditions: rats; read-out: EC50, contraction of isolated arterial rings; cited from earlier work
[5] = molecular target: T3, (Rattus norvegicus, UniProt P49684); conditions: read-out: rU-II Ki; cited from earlier work
T3 sequence (P49684 1-386): T1 sequence (P49684 1-386)

[6] = molecular target: T1, rat GPR14 (U-II receptor); conditions: agonist; calcium mobilization; read-out: FLIPR EC50; cited from earlier work

`CN(C)C(=O)C1(c2ccc(Cl)cc2)CCN(CCN2C(=O)CCc3ccccc32)CC1` showed a melting point of 243 to 245 °C.

In the case of `CC(C)(C)OC(=O)N1CCN(CCNC(=O)c2cc(Cl)ccc2C2=CC3CCC(C2)N3CCN2C(=O)COc3ccccc32)CC1` (centres unmarked) [Cpd 94, 4-[2-(5-chloro-2-{8-[2-(3-oxo-2,3-dihydro-benzo[1,4]oxazin-4-yl)-ethyl]-8-aza-bicyclo[3.2.1]oct-2-en-3-yl}-benzoylamino)-ethyl]-piperazine-1-carboxylic acid tert-butyl ester], the IC50 [1] is reported as 0.29 µM and the Ki (Human UII receptors) is reported as 1.9 µM.

In the case of `CC(C)(C)OC(=O)NCCCCCNC(=O)c1cc(Cl)ccc1C1=CC2CCC(C1)N2CCN1C(=O)COc2ccccc21` (centres unmarked) [Cpd 95, [5-(5-chloro-2-{8-[2-(3-oxo-2,3-dihydro-benzo[1,4]oxazin-4-yl)-ethyl]-8-aza-bicyclo[3.2.1]oct-2-en-3-yl}-benzoylamino)-pentyl]-carbamic acid tert-butyl ester], the IC50 [1] is reported as 0.64 µM and the Ki (Human UII receptors) is reported as 1.3 µM.

In the case of `CC(C)(C)OC(=O)NCCCCCNC(=O)c1ccccc1[C@@H]1C[C@H]2CC[C@@H](C1)N2CCN1C(=O)COc2ccccc21` [Cpd 98, [5-(2-{8-[2-(3-oxo-2,3-dihydro-benzo[1,4]oxazin-4-yl)-ethyl]-8-aza-bicyclo[3.2.1]oct-3-yl}-benzoylamino)-pentyl]-carbamic acid tert-butyl ester], the IC50 [1] is reported as 1.6 µM and the Ki (Human UII receptors) is reported as 1.4 µM.

For `CC(C)(C)OC(=O)N1CCN(CCNC(=O)c2ccccc2C2CC3CCC(C2)N3CCN2C(=O)COc3ccccc32)CC1` (centres unmarked) [Cpd 99, 4-[2-(2-{8-[2-(3-oxo-2,3-dihydro-benzo[1,4]oxazin-4-yl)-ethyl]-8-aza-bicyclo[3.2.1]oct-3-yl}-benzoylamino)-ethyl]-piperazine-1-carboxylic acid tert-butyl ester], the IC50 [1] was 1.1 µM and the Ki (Human UII receptors) was 1.4 µM.

Work on `CC(C)(C)OC(=O)NCCCCCNC(=O)c1cc(Cl)ccc1C1CC2CCC(C1)N2CCN1C(=O)COc2ccccc21` (centres unmarked) [Cpd 100, [5-(5-chloro-2-{8-[2-(3-oxo-2,3-dihydro-benzo[1,4]oxazin-4-yl)-ethyl]-8-aza-bicyclo[3.2.1]oct-3-yl}-benzoylamino)-pentyl]-carbamic acid tert-butyl ester] yielded an IC50 [1] of 0.45 µM and a Ki (Human UII receptors) of 1.2 µM.

In the case of `Cc1cc(NC(=O)NCCN2CCC(O)(Cc3ccccc3)CC2)c2ccccc2n1` [palosuran], the “development of proteinuria and renal damage” value [2] is given as “delayed the development of proteinuria and renal damage”, the “glycemia, glycosylated hemoglobin, and serum lipids” value [2] is given as “slowed the increase in glycemia, glycosylated hemoglobin, and serum lipids” and the insulin [2] is given as “increased insulin”. The renal blood flow [2] was “increased renal blood flow” and the survival [2] was “improved survival”.

For “AGTAD-cyclo(CFWKYC)-V [Goby U-II, Urotensin-II isolated from the urophysis of the goby fish as a 12-mer]”, the EC50 (isolated arterial rings [3]) is listed as < 0.001 µM and the EC50 (isolated arterial rings [4]) is listed as < 0.001 µM.

In the case of “acetyl-cyclic[Cys-Phe-Trp-Lys-(2-Nal)-Cys]-NH2 [(Ac)-CFWK(2-NaI)C—NH2, agonist cyclic peptide used to induce Ca2+ mobilization in the FLIPR assay]”, the Ki [5] is given as 0.00012 ± 5e-05 µM and the EC50 [6] is given as 0.00054 ± 0.0002 µM.
